Assays:
[1] = tested on: patients hospitalized for acute HFrEF
Protocol: (§1) The starting dose and all subsequent doses were selected to optimize the highest tolerated dose based on a systolic blood pressure (SBP) algorithm.
(§2) Inclusion Criteria: • Patients ≥18 y of age with the capacity to provide written informed consent. • Currently hospitalized for a primary diagnosis of HF, including symptoms and signs of fluid overload. • Eligible patients will be randomized no earlier than 24 hours and up to ten days after presentation while still hospitalized as long as meet the following definition of stable status: • SBP≥100 mm Hg for the preceding 6 hours prior to randomization; no symptomatic hypotension • No increase (intensification) in i.v. diuretic dose within last 6 hours prior to randomization • No i.v. inotropic drugs for 24 hours prior to randomization • No i.v. vasodilators including nitrates within last 6 hours prior to randomization • Left ventricular EF 40% within the past 6 m (including current hospitalization) using echocardiography, multi gated acquisition scan (MUGA), CT scanning, MRI or ventricular angiography, provided no subsequent study documented an EF of >40% • Elevated NT-proBNP≥1600 pg/mL OR BNP≥400 pg/mL during current hospitalization.

[2] = tested on: patients hospitalized for acute HFrEF; assay: PIONEER-HF study: clinical outcomes; format: in vivo, human; conditions: 8 weeks; LCZ696 n = 440, enalapril n = 441
Protocol: The study rational and design is described in by Velazquez E J, et al. .in Am.
as §1, §2

CCOC(=O)[C@H](CCc1ccccc1)N[C@@H](C)C(=O)N1CCC[C@H]1C(=O)O [enalapril, reference compound]
Hyperkalemia ([1]; 8 weeks): 9.3% | Symptomatic hypotension ([1]; 8 weeks): 9.1% | Worsening renal function ([1]; 8 weeks): 14.7% | Angioedema in patients who identified as black (in words) ([1]; black patients): angioedema were observed | Angioedema events (number in words) ([1]; blinded adjudication): six | Angioedema ([1]; blinded adjudication, 8 weeks): 1.4% | Patients in whom the maximum target dose had been achieved ([1]; by the week 8 study visit): 62% | Study drug prematurely discontinued prior to 8 weeks ([1]; excluding discontinuation due to death): 20.3% | Additional HF drug [2]: 83 (18.8) number (%) | Composite (death, rehospitalization for HF, LVAD implantation, or listing for cardiac transplant) [2]: 74 (16.8) number (%) | Death [2]: 15 (3.4) number (%) | Expanded composite (composite plus unplanned outpatient visits requiring IV diuretics, or increase >50% in diuretic dose) [2]: 275 (62.4) number (%) | HF rehospitalization [2]: 61 (13.8) number (%) | Increase in diuretic dose >50% [2]: 239 (54.2) number (%) | LVAD implantation [2]: 1 (0.2) number (%) | Listing for cardiac transplant [2]: 0 (0.0) number (%) | Unplanned outpatient visits requiring intravenous diuretics [2]: 2 (0.5) number (%)
